Where two headings read alike, the source gives them in different places. Numbered stars: 1 amine (or outer) side, 2 acyl side, 3 side chain; on linkers, the order of the positions; unused ones are H or OH. Bridge positions count the residues as written; N and C are the ends. Square brackets hold non-standard residues; d marks the D form. Peptide text beside a SMILES is read from it. * marks the point of attachment. hTyr(3R-OH,3'-OSO3H) = N[C@H](C(=O)O)[C@H](O)Cc1ccc(O)c(OS(=O)(=O)O)c1; X3 = O=C(c1ccc(-c2cn3nc(-c4ccc(OC5CCN(c6ccccc6)CC5)cc4)sc3n2)cc1)*; X2 = COCCCCCCN1CCN(c2ccc(-c3nn4cc(-c5ccc(C(=O)*)cc5)nc4s3)cc2)CC1; X4 = C[C@H]1CC[C@H](N2CCN(c3ccc(-c4ccc(C(=O)*)cc4)cc3)CC2)CC1; Orn(3R-OH,Nδ-CH(CH2OH)2) = N[C@H](C(=O)O)[C@H](O)CCNC(CO)CO; X1 = CCCCCOC1CCN(c2ccc(-c3nnc(-c4ccc(C(=O)*)cc4)s3)cc2)CC1; Orn(4R-OH) = O=C([C@H](C[C@@H](O)CN[*:3])N[*:1])[*:2]; Pro(3S-OH,4S-Me) = C[C@H]1CN[C@H](C(=O)O)[C@H]1O; Hyp = O=C(O)[C@@H]1C[C@@H](O)CN1
Test system: Candida albicans FP-633
Format: cell-based
Method: In vitro antimicrobial activity of the object compound of Examples 41, 46, 53 and 56 disclosed later was determined by MICs in mouse serum as described below.
The MICS in mouse serum were determined by the microdilution method using ICR mouse serum buffered with 20 mM HEPES buffer (pH 7.3) as a test medium. Inoculum suspension of 10^6 cells/ml were prepared by a hemocytometric procedure and diluted to obtain an inoculum size of approximately 1.0×10^3 cells/ml. Microplates were incubated at 37° C. for 24 hours in 5% CO2. The MICS were defined as the lowest concentrations at which no visible growth was observed.

[1] = Candida albicans FP-633, ICR mouse serum buffered with 20 mM HEPES (pH 7.3), 37° C., 24 hours, 5% CO2, lowest concentration with no visible growth

Row | MIC (FP-633, 24 h, pH 7.3) [µg/mL] | Structure (SMILES) | MIC [1] [µg/mL]
1 |  | C[C@@H](O)[C@@H]1NC(=O)[C@@H](NC(=O)c2ccc(-c3ccc(N4CCN([C@H]5CC[C@H](C)CC5)CC4)cc3)cc2)C[C@@H](O)CNC(=O)[C@@H]2[C@@H](O)[C@@H](C)CN2C(=O)[C@H]([C@H](O)CCNC(CO)CO)NC(=O)[C@H]([C@H](O)Cc2ccc(O)c(OS(=O)(=O)O)c2)NC(=O)[C@@H]2C[C@@H](O)CN2C1=O [Example 53] (X4-[Orn(4R-OH)]T[Hyp][hTyr(3R-OH,3'-OSO3H)][Orn(3R-OH,Nδ-CH(CH2OH)2)][Pro(3S-OH,4S-Me)]; lactam 1-C) | <0.3
2 |  | C[C@@H](O)[C@@H]1NC(=O)[C@@H](NC(=O)c2ccc(-c3cn4nc(-c5ccc(OC6CCN(c7ccccc7)CC6)cc5)sc4n3)cc2)C[C@@H](O)CNC(=O)[C@@H]2[C@@H](O)[C@@H](C)CN2C(=O)[C@H]([C@H](O)CCNC(CO)CO)NC(=O)[C@H]([C@H](O)Cc2ccc(O)c(OS(=O)(=O)O)c2)NC(=O)[C@@H]2C[C@@H](O)CN2C1=O [Example 41] (X3-[Orn(4R-OH)]T[Hyp][hTyr(3R-OH,3'-OSO3H)][Orn(3R-OH,Nδ-CH(CH2OH)2)][Pro(3S-OH,4S-Me)]; lactam 1-C) | <0.3
3 | <0.3 | COCCCCCCN1CCN(c2ccc(-c3nn4cc(-c5ccc(C(=O)N[C@H]6C[C@@H](O)CNC(=O)[C@@H]7[C@@H](O)[C@@H](C)CN7C(=O)[C@H]([C@H](O)CCNC(CO)CO)NC(=O)[C@H]([C@H](O)Cc7ccc(O)c(OS(=O)(=O)O)c7)NC(=O)[C@@H]7C[C@@H](O)CN7C(=O)[C@H]([C@@H](C)O)NC6=O)cc5)nc4s3)cc2)CC1 [Example 46] (X2-[Orn(4R-OH)]T[Hyp][hTyr(3R-OH,3'-OSO3H)][Orn(3R-OH,Nδ-CH(CH2OH)2)][Pro(3S-OH,4S-Me)]; lactam 1-C) | 
4 | <0.3 | CCCCCOC1CCN(c2ccc(-c3nnc(-c4ccc(C(=O)N[C@H]5C[C@@H](O)CNC(=O)[C@@H]6[C@@H](O)[C@@H](C)CN6C(=O)[C@H]([C@H](O)CCNC(CO)CO)NC(=O)[C@H]([C@H](O)Cc6ccc(O)c(OS(=O)(=O)O)c6)NC(=O)[C@@H]6C[C@@H](O)CN6C(=O)[C@H]([C@@H](C)O)NC5=O)cc4)s3)cc2)CC1 [Example 56] (X1-[Orn(4R-OH)]T[Hyp][hTyr(3R-OH,3'-OSO3H)][Orn(3R-OH,Nδ-CH(CH2OH)2)][Pro(3S-OH,4S-Me)]; lactam 1-C) | 
